Experimental data reported in BindingDB's records for PubMed 8558445 (Abbott Laboratories, 1996).

Biological target: Neuronal acetylcholine receptor subunit alpha-4 (Homo sapiens, UniProt P43681)
Sequence (P43681 whole entry): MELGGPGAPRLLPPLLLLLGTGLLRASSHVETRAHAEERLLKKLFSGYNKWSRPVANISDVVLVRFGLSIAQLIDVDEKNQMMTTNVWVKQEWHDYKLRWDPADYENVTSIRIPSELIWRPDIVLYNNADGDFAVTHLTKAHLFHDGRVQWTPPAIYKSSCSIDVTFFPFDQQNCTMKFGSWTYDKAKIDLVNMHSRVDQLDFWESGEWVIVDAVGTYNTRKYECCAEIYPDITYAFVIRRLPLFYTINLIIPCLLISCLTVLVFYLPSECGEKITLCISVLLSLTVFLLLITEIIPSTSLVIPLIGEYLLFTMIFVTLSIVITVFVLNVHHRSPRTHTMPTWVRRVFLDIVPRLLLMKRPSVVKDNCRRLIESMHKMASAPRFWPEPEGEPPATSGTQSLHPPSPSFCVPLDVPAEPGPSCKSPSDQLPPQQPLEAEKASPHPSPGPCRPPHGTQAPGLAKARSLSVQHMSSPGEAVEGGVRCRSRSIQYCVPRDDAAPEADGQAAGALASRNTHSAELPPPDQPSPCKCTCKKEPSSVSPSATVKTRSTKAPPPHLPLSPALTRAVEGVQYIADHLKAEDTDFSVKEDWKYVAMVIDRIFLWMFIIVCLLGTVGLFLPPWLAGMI

| Structure (SMILES) | Ki [nM] |
| --- | --- |
| CN1[C@@H](C[C@@H](O)c2ccccc2)CCC[C@H]1CC(=O)c1ccccc1 [Lobeline] | 1.92 |
| C[N+](C)(C)CCCCCCCCCC[N+](C)(C)C [Decamethonium Iodide] | 962 |
| CCN1C[C@]2(COC(=O)c3ccccc3-n3c(O)cc(C)c3O)CC[C@H](OC)[C@]34C5C[C@@H]6[C@@H](OC)C[C@@](O)(C5[C@H]6OC)[C@@](O)(C13)[C@@H](OC)C24 (stereo partly drawn) [[(1S,4S,5R,6S,8R,9R,13S,16S,18S)-11-ethyl-8,9-dihydroxy-4,6,16,18-tetramethoxy-11-azahexacyclo[7.7.2.1^{2,5}.0^{1,10}.0^{3,8}.0^{13,17}]nonadecan-13-yl]methyl 2-[(3S)-3-methyl-2,5-dioxopyrrolidin-1-yl]benzoate] | 3210 |
| C[N+](C)(C)CCOC(N)=O [(2-Hydroxyethyl)trimethyl ammonium chloride carbamate] | 68.2 |
| COc1cc2c3cc1Oc1cc(ccc1O)C[C@H]1c4c(cc(OC)c(O)c4Oc4ccc(cc4)C[C@@H]3N(C)CC2)CC[N+]1(C)C [CAS_57-94-3] | 3480 |
| C[N+](C)(C)CC[N+]1(C)Cc2c(Cl)c(Cl)c(Cl)c(Cl)c2C1 [CAS_6243] | > 10000 |
| c1cncc(C2CCCCN2)c1 (stereo not drawn) [(+-)-anabasine] | 37.6 |
| C=C(C=O)C[C@H]1C[C@H](O)[C@]2(C)O[C@@H]3C[C@@H]4O[C@@H]5C[C@]6(C)O[C@]7(C)CC[C@@H]8O[C@@H]9C[C@]%10(C)O[C@@H]%11C(C)=CC(=O)O[C@H]%11C[C@H]%10O[C@H]9C[C@@H](C)[C@H]8O[C@H]7C[C@H]6O[C@@]5(C)C/C=C\[C@H]4O[C@H]3C[C@H]2O1 | 4730 |
| O=c1cccc2n1C[C@H]1CNC[C@H]2C1 [(1S,9R)-7,11-diazatricyclo[7.3.1.0~2,7~]trideca-2,4-dien-6-one] | 0.43 |
| CNC1(C)C2CCC(C2)C1(C)C (stereo unspecified) [Methyl-(2,3,3-trimethyl-bicyclo[2.2.1]hept-2-yl)-amine(Mecamylamine)] | > 10000 |
| C[N+]1(C)CCN(c2ccccc2)CC1 [DMPP] | 10.7 |
